In US7619005B2, “Methods for treating cognitive impairment in humans with Multiple Sclerosis” (Cognition Pharmaceuticals LLC, priority 2000, dated 2009):
Several values for one entry are separate records, joined by “and”; a condition that tells them apart may be missing. Identical values can stand only once.

Experiments:
[1] = system: rats; test: Inhibitory Avoidance task, normal rats
Description: The paradigms consists of one training trial and one retention trial. Test substances may be administered to the rats either before or after training. Improved memory, as a result of test substance administration, is evident on the retention trial.
(§1) Two seconds after entering the dark chamber, a continuous 0.46 mA foot-shock was delivered through the floor grid for two seconds. The animal was then removed from the apparatus and returned to the home cage. The animals received a retention test 24 hours following training. The retention test was identical to training except that no foot-shock was delivered. […] Data was collected by the Graphic State™ Notation software, and was recorded onto an appropriate data sheet.

[2] = system: rats with bilateral lesions of the fornix; test: Inhibitory Avoidance task, fornix lesion rats; conditions: for latency to enter the dark side of the apparatus: Fornix lesion rats, each animal
Description: as §1

[3] = system: Long-Evans rats; test: Passive Avoidance test, injection immediately after training; conditions: i.p. immediately after training; p values=0.007 (C105), 0.0004 (d-amphetamine), 0.03 (SN522)
[4] = system: rats; test: Activity monitoring, open-field box, 10 minutes; conditions: 2 mg/kg; entire 10 minute session (FIG. 7)
Description: Activity monitoring was conducted in a Plexiblas open-field box. Activity levels were measured by a grid of infrared light beams that traversed the cage from left to right and back to front. The location of the animal was detected by breaks in the infrared light beams. General behavior and activity levels were recorded by a computerized monitoring system for a period of ten minutes. The analyzed behaviors included but were not limited to; horizontal activity, total distance moved, movement time, number of movements, number of rears, number of stereotyped movements, and time spent resting. Data was collected on-line using Versa Max (Version 1.83) computer software and a Hewlett Packard Pavilion computer.

[5] = system: Long-Evans rats; test: Locomotor activity, activity monitoring chambers; type: in vivo, rat; conditions: higher doses (0.5, 2.5, 5.0 mg/kg ip) (FIG. 24)
Description: Activity monitoring was conducted in a Plexiglas open-field box measuring 30 by 30 cm. […] The location of the animal within the cage was detected by breaks in the infrared light beams. Light beams status information was collected and rapidly analyzed by a computerized activity monitoring system (VersaMax System, Accuscan Instruments.)
In order to determine whether SN522 had any adverse effects on locomotor or exploratory activity, rats were injected with saline or 0.25, 0.5, 2.5 and 5.0 mg/kg of SN522 and immediately afterwards placed into the activity monitoring chambers for a period of three hours.

[6] = system: rats; test: Spontaneous Object Recognition task, normal rats; conditions: 0.5 mg/kg immediately following training
Description: Apparatus for Object Recognition testing consisted of a plexiglass open field activity chamber, measuring 30 by 30 cm. A video camera was mounted on the wall above the chamber. Three plastic objects served as stimuli for the experiment. Two of the objects were identical to one another, and the third was different. Rats were individually habituated to the open-field box for three consecutive days. Habituation sessions were six minutes in duration. Twenty-four hours after the last day of habituation, a training session was conducted, in which two identical objects were placed in the open-field box, 10 cm from the back wall. The animal was placed into the box and was allowed to explore freely for a period of four minutes. Twenty-four hours after the training session, retention testing was conducted. During retention testing, the rat was placed back into the same activity box with one of the familiar objects used during the training session and a novel object that the rat had not seen before. The rat was allowed to explore the box and objects for a period of four minutes. Testing was conducted at the same time each day, and was videotaped for off-line analysis. Two discrimination indices, D1 and D2 were calculated in order to measure the strength of recognition memory. […]

[7] = system: rats; test: Tail-Flick Analgesia Testing (C105); type: in vivo, rat; set-up: Tail-Flick Analgesia (latency to flick tail): unit not given here; conditions: for Tail-Flick Analgesia (latency to flick tail): each animal
Description: For Tail-Flick Analgesia Testing, the animal was placed on top of the Tail-Flick monitor and gently held in place with a cotton towel. The tail of the animal was placed in a shallow groove lying between two sensors and over the top of a radiant heat wire. The Tail Flick monitor was activated, and the latency for the animal to flick its tail out of the groove and away from the heat source was recorded. The animal was returned to its home cage immediately following testing.

[8] = system: healthy adult male and female subjects; test: Phase 1 studies of C105: safety and tolerability; type: in vivo, human
Excerpt: Safety and tolerability assessments were changes in vital signs, ECGs, Holter monitoring, laboratory tests, physical examination and adverse events.

[9] = system: scopolamine treated rats; test: Passive Avoidance in scopolamine treated rats (memory impairment); type: in vivo, rat

C[C@H](N)Cc1ccccc1 [(S)-(+)-amphetamine, reference compound]
latency to enter the dark side of the apparatus ([1]; 0.5 mg/kg, each animal, rank-ordered, 24 h retention): 65.0 seconds and 110.0 seconds and 153.0 seconds and 207.0 seconds (2×) and 2.0 seconds and 26.0 seconds and 38.0 seconds and 39.0 seconds and 63.0 seconds
latency to enter the dark side of the apparatus ([1]; 1.0 mg/kg, each animal, rank-ordered, 24 h retention): 34.0 s and 35.0 s and 47.0 s and 157.0 s and 263.0 s and 7.0 s and 17.0 s and 19.0 s and 25.0 s and 31.0 s
Inhibitory Avoidance performance, dose experiment ([1]; 2.0 mg/kg one hour before training (Tables 1 and 2)): appeared to enhance performance
IA performance of normal rats ([1]; 2.0 mg/kg, one hour before (FIG. 5), p<0.05 vs all other groups): dramatically enhanced the performance of normal rats
memory for the Inhibitory Avoidance task ([1]; 2.0 mg/kg, replicated experiments (FIG. 6), t(76)=3.416, p<0.001): significantly enhanced memory for the Inhibitory Avoidance task
latency to enter the dark side of the apparatus ([1]; 2.0 mg/kg, each animal, rank-ordered, 24 h retention): 190.0 s and 230.0 s and 245.0 s and 457.0 s and 517.0 s and 33.0 s and 63.0 s and 82.0 s and 84.0 s and 101.0 s
second retention test one week after the first retention test ([1]; no additional training or drug (FIG. 4), p<0.01): performed significantly better than rats that had received control injections of vehicle solution
IA performance of fornix animals compared with normal, saline injected animals ([2]; 2.0 mg/kg (FIG. 5)): not significantly different from normal, saline injected animals
IA performance of fornix lesion rats ([2]; 2.0 mg/kg, one hour before (FIG. 5)): appeared to improve the performance of the fornix lesion rats
dose that significantly improved performance on the passive avoidance task [3]: 2.0 mg/kg
locomotor activity [4]: clear and significant enhancement in locomotor activity
effects on activity [5]: profound increases in activity

(−)-1-methyl-2-phenylethylamine sulfate (2:1) [C105]
discrimination indices D1 and D2 vs saline ([6]; p<0.0147 and p<0.0024): significantly higher
recognition memory ([6]; retention 24 h): significantly improved recognition memory
latency to enter the dark side of the apparatus ([1]; 0.4 mg/kg one hour prior to training, each animal, rank-ordered): 231.0 s and 236.0 s and 250.0 s and 265.0 s and 629.0 s and 45.0 s and 62.0 s and 80.0 s and 87.0 s and 170.0 s
Inhibitory Avoidance performance, post training administration ([1]; 0.5 mg/kg immediately after training (FIG. 11), p<0.0402): significantly enhanced performance on the Inhibitory Avoidance task
latency to enter the dark side of the apparatus ([1]; 1.0 mg/kg one hour prior to training, each animal, rank-ordered): 343.0 s and 729.0 s and 813.0 s and 824.0 s and 900.0 s and 101.0 s and 115.0 s and 121.0 s and 202.0 s and 265.0 s
Inhibitory Avoidance performance vs saline controls ([1]; 1.0 mg/kg one hour prior to training, post hoc p<0.05): performed significantly better than saline injected controls
latency to enter the dark side of the apparatus ([1]; 2.0 mg/kg one hour prior to training, each animal, rank-ordered): 230.0 seconds and 231.0 seconds and 253.0 seconds and 366.0 seconds and 384.0 seconds and 30.0 seconds and 59.0 seconds (2×) and 127.0 seconds and 137.0 seconds
latency to enter the dark side of the apparatus ([1]; Control rats, 0.5 mg/kg, each animal (Table 7)): 214.0 s and 240.0 s and 252.0 s and 271.0 s and 284.0 s
latency to enter the dark side of the apparatus ([1]; Control rats, 1.0 mg/kg, each animal (Table 7)): 106.0 s and 195.0 s and 197.0 s and 213.0 s and 238.0 s
latency to enter the dark side of the apparatus ([1]; Control rats, 2.0 mg/kg, each animal (Table 7)): 86.0 s and 92.0 s and 106.0 s and 160.0 s and 192.0 s
latency to enter the dark side of the apparatus ([1]; Control rats, 4.0 mg/kg, each animal (Table 7)): 83.0 seconds (2×) and 86.0 seconds and 98.0 seconds and 193.0 seconds
mnemonic performance, Inhibitory Avoidance ([1]; doses lower than 0.5 mg/kg (0.1, […]) one hour prior to training): not effective in improving the mnemonic performance
latency to enter the dark side of the apparatus ([1]; low doses: 0.1 mg/kg one hour prior to training, each animal, 0.1 mg/kg): 55.0 seconds (2×) and 110.0 seconds and 113.0 seconds and 124.0 seconds and 366.0 seconds and 37.0 seconds (2×) and 39.0 seconds (2×)
dose most effective in improving the performance of the fornix lesion animals ([2]; 0.5, 1.0, 2.0 and 4.0 mg/kg tested, one hour prior to testing (FIG. 12)): 1.0 mg/kg
latency to enter the dark side of the apparatus ([2]; 0.5 mg/kg): 21.0 seconds (2×) and 32.0 seconds and 55.0 seconds and 65.0 seconds and 72.0 seconds and 209.0 seconds and 4.0 seconds and 7.0 seconds and 13.0 seconds
latency to enter the dark side of the apparatus ([2]; 1.0 mg/kg): 19.0 seconds (2×) and 166.0 seconds and 221.0 seconds and 246.0 seconds and 274.0 seconds and 314.0 seconds and 4.0 seconds and 7.0 seconds
latency to enter the dark side of the apparatus ([2]; 2.0 mg/kg): 28.0 s and 30.0 s and 40.0 s and 70.0 s and 84.0 s and 153.0 s and 4.0 s and 17.0 s and 18.0 s and 26.0 s
latency to enter the dark side of the apparatus ([2]; 4.0 mg/kg): 25.0 s and 28.0 s and 42.0 s and 96.0 s and 140.0 s and 159.0 s and 2.0 s and 8.0 s and 13.0 s and 21.0 s
dose that significantly improved performance on the passive avoidance task [3]: 0.5 mg/kg
Tail-Flick Analgesia (latency to flick tail) ([7]; 1.0 mg/kg one hour prior to testing): 4.60 and 5.09 and 6.01 and 1.13 and 2.28 and 3.26 and 3.30 and 4.59
Tail-Flick Analgesia (latency to flick tail) ([7]; 2.0 mg/kg one hour prior to testing): 3.89 and 3.96 and 4.45 and 2.46 and 2.68 and 2.79 and 3.05 and 3.56
Tail-Flick Analgesia (latency to flick tail) ([7]; 4.0 mg/kg one hour prior to testing): 6.66 and 16.44 and 20.00 and 2.22 and 3.13 and 5.43 and 6.26 and 6.42
Tail-Flick Analgesia (latency to flick tail) ([7]; 8.0 mg/kg one hour prior to testing): 6.54 and 7.39 and 14.43 and 3.13 and 4.67 and 4.72 and 5.22
analgesic properties ([7]; 1.0 and 2.0 mg/kg one hour prior to testing): had no analgesic properties
analgesic properties ([7]; 4.0 and 8.0 mg/kg one hour prior to testing, statistical significance at 4.0 mg/kg (p<0.0117)): did
serious adverse events ([8]; single oral doses 5 to 45 mg): no reported serious adverse events
most frequently reported adverse events ([8]; single oral doses 5 to 45 mg, generally mild): dizziness, headache, insomnia, sinus tachycardia, supraventricular tachycardia and aptyalism
tolerability ([8]; single oral doses ranging from 5 to 45 mg): well tolerated
performance vs animals treated with scopolamine and saline ([9]; 1.0 mg/kg of C105, printed p>0.05): performed significantly better than animals treated with scopolamine and saline
alleviation of scopolamine impairment (step-through latency) ([9]; C105 i.p. immediately after training, log rank p=0.02 (FIG. 33)): effective at alleviating the impairment in the scopolamine-injected animals
